The target of test [1] is T1, stPho1 (plastidial Solanum tuberosum phosphorylase) (Solanum tuberosum, UniProt P04045).
T1 construct: stPho1 was purified from a natural source; from tissue; host or cells: Solanum tuberosum mature tubers
T1 sequence (P04045 51-966): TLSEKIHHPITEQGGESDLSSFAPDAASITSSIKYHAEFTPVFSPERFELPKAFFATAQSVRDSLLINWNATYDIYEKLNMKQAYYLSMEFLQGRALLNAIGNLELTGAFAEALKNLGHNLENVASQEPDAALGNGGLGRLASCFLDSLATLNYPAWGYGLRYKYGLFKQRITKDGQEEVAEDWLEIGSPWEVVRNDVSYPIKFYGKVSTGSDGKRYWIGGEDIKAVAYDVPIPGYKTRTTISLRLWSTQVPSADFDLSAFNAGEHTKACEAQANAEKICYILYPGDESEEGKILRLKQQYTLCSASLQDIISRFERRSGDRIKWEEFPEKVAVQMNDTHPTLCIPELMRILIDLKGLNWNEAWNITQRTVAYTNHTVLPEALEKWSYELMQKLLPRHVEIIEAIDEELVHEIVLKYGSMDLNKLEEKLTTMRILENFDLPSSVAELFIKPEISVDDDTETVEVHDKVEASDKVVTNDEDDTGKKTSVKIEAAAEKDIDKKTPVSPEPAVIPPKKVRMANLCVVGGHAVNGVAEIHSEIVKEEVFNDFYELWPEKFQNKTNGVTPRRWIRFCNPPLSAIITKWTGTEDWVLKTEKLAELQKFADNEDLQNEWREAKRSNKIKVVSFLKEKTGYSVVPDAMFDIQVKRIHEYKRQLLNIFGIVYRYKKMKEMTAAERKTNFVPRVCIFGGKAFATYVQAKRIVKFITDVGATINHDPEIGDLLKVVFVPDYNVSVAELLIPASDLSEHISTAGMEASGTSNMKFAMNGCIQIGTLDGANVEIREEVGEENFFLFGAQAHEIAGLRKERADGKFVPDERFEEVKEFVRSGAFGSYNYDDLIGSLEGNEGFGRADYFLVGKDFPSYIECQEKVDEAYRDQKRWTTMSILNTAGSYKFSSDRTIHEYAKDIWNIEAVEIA
Nature of the test: stPho1 enzyme kinetics in the direction of glycogen synthesis. Format: biochemical. An excerpt: (§1) In vitro, stPho1 can perform the reverse reaction in the presence of higher concentrations of Glc-1-P, where the enzyme adds glucose residues on glucans with direct release of orthophosphate ions, which can then be measured spectrophotometrically using the method of Saheki et al.[47] Starch granules are composed of two distinct glucose polymers, amylose and amylopectin.[48] Amylopectin is the major polymer in starch and has α-1,4-linked glucose chains with α-1,6-linked branches every 24–30 glucose units, whereas amylose is composed of long α-1,4-linked linear chains. Kinetic studies were performed using glycogen, whose structure is very similar to that of amylopectin but with more branches (every 8–12 glucose units) due to better solubility. Enzyme assays were performed at 30 °C in the direction of glycogen synthesis using 30 μg/mL of stPho1 or ΔPho1 in a 20 mM sodium citrate buffer (pH 6.0) containing 60 mM KCl, 0.6 mM ethylenediaminetetraacetic acid (EDTA), and 0.6 mM dithiothreitol, using constant concentrations of glycogen (0.2% w/v) and various concentrations of Glc-1-P (3, 4, 6, 10, and 15 mM for stPho1 and 1, 2, 3, 4, 6 mM for stPho1ΔL78) and inhibitors. Initial velocities were calculated from the pseudo-first-order rate constants (k) using the first-order rate equation ([A] = [A]0e^–kt), where [A]0 and [A] are the initial concentration of the sample and the sample’s concentration at various times, respectively, and t is the corresponding time (min) following a previously established protocol,[54] and the nonlinear regression program GraFit[50] with an explicit value was used for calculating the standard deviation of each point.[49]
(§2) To establish the optimum pH and temperature for enzyme activity, we first measured the enzymatic activity in the 4.5–8.5 pH range. Kinetic studies were performed in the direction of glycogen synthesis using 50 μg/mL of stPho1 using six different buffers (20 mM sodium acetate buffer for pH 4.5 and 5.5, 20 mM sodium citrate buffer for pH 6.0 and 6.5, and 20 mM Tris–HCl for pH 7.5 and 8.5) containing 60 mM KCl, 0.6 mM EDTA, and 0.6 mM dithiothreitol, using constant concentrations of glycogen (0.2% w/v) and Glc-1-P (14 mM) at 30 °C. […] To determine the optimum temperature for the activity, enzymatic assays were performed at temperatures 20, 30, 37, and 45 °C. Kinetic studies were performed in the direction of glycogen synthesis using 50 μg/mL of stPho1 in a 20 mM sodium citrate buffer (pH 6.0) containing 60 mM KCl, 0.6 mM EDTA, and 0.6 mM dithiothreitol, using constant concentrations of glycogen (0.2% w/v) and Glc-1-P (4 mM). […] Since mammalian muscle phosphorylase activity is dependent on the presence of the allosteric activator AMP,[35] we investigated whether the presence of AMP affects the stPho1 enzymatic activity. The effect was tested with 1 mM AMP, using 30 μg/mL of stPho1 in 20 mM sodium citrate buffer (pH 6.0) containing 60 mM KCl, 0.6 mM EDTA, and 0.6 mM dithiothreitol, using a saturating concentration of glycogen (0.2% w/v) and various concentrations of Glc-1-P (3, 6, 10, and 15 mM).

Test [2] addresses T2, stPho1ΔL78 (Solanum tuberosum, UniProt P04045).
T2 construct: the N-terminal (residues 23–446) and the C-terminal (residues 511–916); from tissue; host or cells: Solanum tuberosum mature tubers; purified stPho1 left about 4 weeks at room temperature to proteolyse
In words: stPho1ΔL78 enzyme kinetics in the direction of glycogen synthesis. Format: biochemical.
From the text: as §1, §2

Test [3] concerns rabbit muscle glycogen phosphorylase b (rmGPb). The following applies: cited from earlier work.
Test [4] has as its target rmGPa. On the set-up: method as in PMID 12930991, PMID 3805034, PMID 624732. The following applies: cited from earlier work.
The target of test [5] is mammalian enzyme (GP). More on the design: method as in PMID 32771768. The following applies: cited from earlier work.
In test [6] the test system is stPho1ΔL78. Nature of the test: stPho1ΔL78 enzyme kinetics in the direction of glycogen synthesis. Conditions: direction of glycan synthesis. Format: biochemical, Solanum tuberosum.
From the text: as §1, §2

Setting [7] is: 30 °C, pH 6.0, glycogen 0.2% w/v.
Where [8] appears, read: 30 °C, pH 6.0, glycogen 0.2% w/v, read-out: Km Glc-1-P.
[9] abbreviates: 30 °C, pH 6.0, glycogen 0.2% w/v, various Glc-1-P, read-out: Ki.

Read-outs that look alike come from different tables or passages of the source.

For `Nc1ncnc2c1ncn2[C@@H]1O[C@H](COP(=O)(O)O)[C@@H](O)[C@H]1O` [AMP], the “Effect on stPho1 enzymatic activity (Vmax, Km)” value in test [1] (1 mM AMP, glycogen 0.2% w/v, Glc-1-P 3-15 mM) was “does not have any effect”.

For `O=P(O)(O)O[C@H]1O[C@H](CO)[C@@H](O)[C@H](O)[C@H]1O` [Glc-1-P, glucose-1-phosphate], the figures for the “Vmax Glc-1-P” value in test [2] (setting [7]), in test [1] (setting [7]) and in test [3] were 0.32 ± 0.02 µmol/min/mg, 0.37 ± 0.01 µmol/min/mg and 2.9[63] μmol/min/mg, respectively. The Km is 1400 ± 200 µM in test [2] (setting [8]); 2300 ± 200 µM in test [1] (setting [8]); 2400 ± 200 µM in test [1] (read-out: Km Glc-1-P + 1 mM AMP, + 1 mM AMP, pH 6.0, glycogen 0.2% w/v); 9000 µM in test [3] (read-out: Km Glc-1-P + 1 mM AMP, + 1 mM AMP); 28000 µM in test [3] (read-out: Km Glc-1-P). The “Vmax Glc-1-P + 1 mM AMP” value in test [1] (+ 1 mM AMP, pH 6.0, glycogen 0.2% w/v) is 0.39 ± 0.01 µmol/min/mg; in test [3] (+ 1 mM AMP), 64[63] μmol/min/mg.

`C[C@H]1O[C@H](O[C@H]2[C@H](O)[C@@H](O)[C@@H](O[C@H]3[C@H](O)[C@@H](O)C(O)O[C@@H]3CO)O[C@@H]2CO)[C@H](O)[C@@H](O)[C@@H]1N[C@H]1C=C(CO)[C@@H](O)[C@H](O)[C@H]1O` (some centres unmarked) [acarbose]: in test [4], the inhibition constant Ki was 26 mM.

On to `Cn1c(=O)c2c(ncn2C)n(C)c1=O` [caffeine], for which the Ki in test [3] (in the presence of 1 mM AMP) was 0.13 mM.

As for `O=c1c(O)c(-c2ccc(O)c(O)c2)oc2cc(O)cc(O)c12` [quercetin], the Ki in test [5] is 0.032 to 0.069 mM. Further, the “Effect on the enzymatic activity of stPho1” value in test [1] (up to a concentration of 1 mM) is “did not have any effect”.

Regarding `OC[C@H]1O[C@H](O)[C@H](O)[C@@H](O)[C@@H]1O` [α-D-glucose], the Ki was 38.4 ± 1.5 mM in test [2] (setting [9]), 42.8 ± 2.6 mM in test [1] (setting [9]) and 3.2 mM in test [3] (in the presence of 1 mM AMP).

For the molecule `OC[C@H]1O[C@@H]2O[C@H]3[C@H](O)[C@@H](O)[C@@H](O[C@H]4[C@H](O)[C@@H](O)[C@@H](O[C@H]5[C@H](O)[C@@H](O)[C@@H](O[C@H]6[C@H](O)[C@@H](O)[C@@H](O[C@H]7[C@H](O)[C@@H](O)[C@@H](O[C@H]1[C@H](O)[C@H]2O)O[C@@H]7CO)O[C@@H]6CO)O[C@@H]5CO)O[C@@H]4CO)O[C@@H]3CO` [α-cyclodextrin], in test [3] (glycogen storage site ligands), the Ki was 47.1 mM.

Consider `OC[C@H]1O[C@@H]2O[C@H]3[C@H](O)[C@@H](O)[C@@H](O[C@H]4[C@H](O)[C@@H](O)[C@@H](O[C@H]5[C@H](O)[C@@H](O)[C@@H](O[C@H]6[C@H](O)[C@@H](O)[C@@H](O[C@H]7[C@H](O)[C@@H](O)[C@@H](O[C@H]8[C@H](O)[C@@H](O)[C@@H](O[C@H]1[C@H](O)[C@H]2O)O[C@@H]8CO)O[C@@H]7CO)O[C@@H]6CO)O[C@@H]5CO)O[C@@H]4CO)O[C@@H]3CO` [β-cyclodextrin], for which the Ki is 0.031 ± 0.001 mM in test [2], 0.0731 ± 0.0059 mM in test [1] and 14.1 mM in test [3] (in the presence of 1 mM AMP). Besides, the “Binding strength in stPho1 relative to rmGPb” value in test [1] (stPho1 forms vs rmGPb) is recorded as 200–450 times.

As for `OC[C@H]1O[C@@H]2O[C@H]3[C@H](O)[C@@H](O)[C@@H](O[C@H]4[C@H](O)[C@@H](O)[C@@H](O[C@H]5[C@H](O)[C@@H](O)[C@@H](O[C@H]6[C@H](O)[C@@H](O)[C@@H](O[C@H]7[C@H](O)[C@@H](O)[C@@H](O[C@H]8[C@H](O)[C@@H](O)[C@@H](O[C@H]9[C@H](O)[C@@H](O)[C@@H](O[C@H]1[C@H](O)[C@H]2O)O[C@@H]9CO)O[C@@H]8CO)O[C@@H]7CO)O[C@@H]6CO)O[C@@H]5CO)O[C@@H]4CO)O[C@@H]3CO` [γ-cyclodextrin], in test [3] (glycogen storage site ligands), the Ki was 7.4 mM.

As for glycogen, the “Km × 1000 glycogen” value in test [2] (30 °C, pH 6.0) was 60 ± 9%; in test [1] (30 °C, pH 6.0), 114.2 ± 7.6%; in test [3], 12^1[63] %. In addition, the “Affinity of stPho1ΔL78 relative to stPho1” value in test [6] is recorded as 2 times.

Regarding maltoheptaose [maltoheptaose (G7)], the Ki in test [3] (glycogen storage site ligands) was 1 mM.

As usually defined, the Km is the substrate concentration at which the rate is half of its maximum. As a reminder, the Ki is the dissociation constant of the complex between target and ligand, obtained from inhibition or displacement.

These data come from PMC11465516, “Kinetic and Structural Studies of the Plastidial Solanum tuberosum Phosphorylase” (ACS Omega, 2024).
